In paper PMC12102733, “The mycotoxin Beauvericin is an uncompetitive inhibitor of Cathepsin B” (Protein Science : A Publication of the Protein Society, 2025):

Tests used:
[1] = Solubility in aqueous buffers; format: physicochemical; settings: 0.1% (v/v) Tween 20 used to increase solubility
Procedure: NMR experiments were performed at 298 K on Bruker Avance III HD spectrometers operating at 750 MHz, equipped with 5 mm triple resonance TCI (^1H, ^13C, ^15N) cryoprobes and shielded z‐gradients. BEA compound was purchased (Item No. 11426) from Cayman Chemical, Ann Arbor, Michigan, USA, and recombinant human CTSB (6His tag at the C‐terminus) was purchased (Item No. 153921.10) from Biomol GmbH, Hamburg, Germany. Both CTSB and BEA were used without any further purifications. The purity of the compound (>95%) was checked by 1D ^1H NMR of 250 μM BEA compound measured (256 scans) in 90% (v/v) DMSOd6 (Figure 2a). […] To perform STD‐NMR experiments, 5 μM of CTSB and 250 μM BEA were prepared in 25 mM oxalic acid/sodium oxalate, 5% (v/v) DMSOd6, pH 5.0, 10% (v/v) D2O, and 0.1% (v/v) Tween 20. The STD‐NMR spectra were acquired with 4928 scans, and the subtraction of the reference spectrum was performed internally via phase cycling after every scan to obtain the STD effect. […] There was no compound signal detected below 0 ppm. […] The STD intensity of the aromatic proton STD effect was set to 100% as a reference, and the relative intensities were determined (Mayer and Meyer [2001]). […] Data was processed and analyzed with TopSpin 3.2 (Bruker BioSpin). […]

[2] = target: T1, human CTSB (Homo sapiens, UniProt P07858); experiment: Enzyme kinetics of recombinant human CTSB in the presence of BEA; format: biochemical; settings: uncompetitive; approximated from closest neighbor intersection point of [S]/v vs. [I] plot; Z-Leu-Arg AMC substrate, BEA 0-25 μM, 25 mM MES pH 5, 26°C; read-out: K i (estimated)
T1 construct: purchased R&D Biosystems 953‐CY
Procedure: Recombinant human CTSB (R&D Biosystems, Cat# 953‐CY) was activated in a solution of 25 mM MES pH 5 and 5 mM DTT at a protein concentration of 25 μg/mL, as indicated by the manufacturer. The activation was carried out by incubating the solution in a thermal bath at 26°C for 30 min and then diluting it to a concentration of 0.2 μg/mL in a 25 mM MES buffer pH 5. Complete conversion of Procathepsin B into its cleaved form by activation was verified by SDS‐PAGE (Figure S1, Supporting Information).
Reactions were carried out in a 96‐well black microplate (Greiner Bio‐One, Cat# 675086) in a final volume of 100 μL, using 20 ng of enzyme with increasing concentrations of the fluorogenic substrate Z‐Leu‐Arg AMC (R&D Biosystems, Cat# ES008) (from 0 to 200 μM) and BEA (from 0 to 25 μM).
Progress curves were measured using a TECAN infinite M plex microplate reader with an excitation wavelength of 380 nm and an emission wavelength of 460 nm. All the components, except the enzyme, were loaded onto the plate and were left to reach a temperature of 26°C. Protein samples were loaded using a multichannel pipette. Plates were shaken using a pulse of 3.5 s with an amplitude of 4.5 mm. Data was collected for a total of 1400 s with a reading interval of 45 s.
Reaction rates were calculated from the progress curves using linear regression. […]

Question: Which “solubility in aqueous buffers” value [1] does the source give for `CC(C)[C@H]1OC(=O)[C@H](Cc2ccccc2)N(C)C(=O)[C@@H](C(C)C)OC(=O)[C@H](Cc2ccccc2)N(C)C(=O)[C@@H](C(C)C)OC(=O)[C@H](Cc2ccccc2)N(C)C1=O` [BEA, Beauvericin] here?
Answer: sparingly soluble in aqueous buffers

Question: What about the Ki [2] of the same molecule?
Answer: ~44.3 µM
